Assay results reported in patent US5646141A, “Compounds useful as antiproliferative agents and GARFT inhibitors” (Agouron Pharmaceuticals, Inc., priority 1995, dated 1997).

Legend:
[1] = system: reduced folate transport system and the mFBP; conditions: CCRF-CEM and MA104 cell lines for DDATHF (Pizzorno et al.); cited from earlier work
[2] = reported in literature (Muggia); cited from earlier work
[3] = system: mFBP; conditions: cited from earlier work
[4] = system: L1210; assay: In vitro growth inhibition (MTT), L1210; type: cell-based; conditions: Mus musculus, continuous (72-hour) exposure, mean IC50, read-out: IC50 Cell Culture L1210
Experimental: (§1) All cultures were maintained at 37° C., 5% air-CO2 in a humidified incubator.
In vitro growth inhibition:
(§2) Stock solutions of the inhibitors were prepared in 10 mM sodium bicarbonate in water and stored in 1 ml aliquots at -20° C. for cell culture experiments. Cell-growth inhibition was measured by a modification of the method of Mosmann, J. Immunol.
(§3) Column 1 was filled with the same volume, 135 ml, of fresh medium, without cells, for use as a blank. The plates were then placed in a 37° C., 5% air-CO2 incubator. After 1 to 4 hours, plates were removed from the incubator followed by addition of the test compound at 10×final concentration, 15 ml/well in binary dilutions, to columns 12 to 4. […] Wells containing each concentration of test compound were prepared in quadruplicate on each plate. Fifteen milliliters of media, without test compound, were added to the wells in column 1 of the plates. The cells were then returned to the incubator and remained undisturbed for the full incubation period. On day 3 for L1210 and L1210/CI920 cells or day 5 for CCRF-CEM cells, 50 ml of 0.8 mg/ml MTT (4,5-dimethylthiazol-2-yl)-2,5-diphenyl tetrazolium bromide; Sigma catalog no. […] The concentration of drug required to reduce cell growth by 50% as measured by MTT metabolism was determined by interpolation between the O.D. (minus blank) immediately above and below 50% of control O.D. (minus blank).

[5] = target: T1, human folate-binding protein (FBP) (Homo sapiens, UniProt P15328); assay: FBP competitive binding assay (3H-folic acid, KB cell membranes); conditions: for Kd: 25° C., pH 7.4, 3H-folic acid competition
T1 construct: membrane associated FBP prepared from cultured KB cells; endogenous in cells; host or cells: KB cells (membrane fraction)
T1 sequence (P15328 25-257): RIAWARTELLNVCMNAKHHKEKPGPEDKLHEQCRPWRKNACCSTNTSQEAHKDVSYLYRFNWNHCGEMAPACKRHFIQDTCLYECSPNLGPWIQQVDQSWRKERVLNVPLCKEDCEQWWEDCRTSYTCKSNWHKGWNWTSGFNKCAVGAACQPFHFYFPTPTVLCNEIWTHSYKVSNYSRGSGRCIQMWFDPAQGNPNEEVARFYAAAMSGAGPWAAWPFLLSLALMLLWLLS
Experimental: Determination of Dissociation Constants for Human Folate Binding Protein:
The dissociation constant (Kd) for human folate-binding protein (FBP) was determined in a competitive binding assay using membrane associated FBP prepared from cultured KB cells.
Preparation of KB cell Membrane Fraction:
Adherent KB cells were scraped from flasks, washed once in ice-cold PBS, and centrifuged at 5000×g for 5 minutes at 4° C. Pelleted cells (2×10^8 cells) were resuspended in 10 ml of suspension buffer (KH2 PO4 -KOH pH 7.4:10 mM EDTA:10 mM 2-mercaptoethanol),sonicated briefly to complete cell lysis and centrifuged at 12000×g for 10 minutes at 4° C. The pellet was stripped of endogenous bound folate by resuspension in 20 ml of acidic buffer (50 mM KH2 PO4 -KOH pH 3.5:10 mM EDTA:10 mM 2-mercaptoethanol) and centrifuged as before. The pellet was then resuspended in 20 ml of the suspension buffer at pH 7.4 and centrifuged as before. The pellet was resuspended in 5 ml of suspension buffer at pH 7.4 lacking EDTA. Protein content was quantitated using the Bradford method with BSA as standard. Typical yields for this procedure were 4-5 mg total membrane protein per 2×10^8 cells. This final suspension was used as a source of membrane-associated human FBP.
FBP Competitive Binding Assay:
Inhibitor was allowed to compete against ^3 H-folic acid for binding to FBP. Reactions mixtures contained […] of cell membrane protein containing 3-6 pmoles (3-6 nM) of FBP, 17.25 pmoles ^3 H-folic acid (17.25 nM, 0.5 μCi), various concentrations of competitor, in 1 ml of 50 mM KH2 PO4 -KOH pH 7.4:10 mM 2-mercaptoethanol. Reactions were performed at 25° C. Because of the very slow release of bound ^3 H-folic acid, the competitor was prebound for 30 minutes in the absence of ^3 H-folic acid. ^3 H-Folic acid was then added and the mixtures were allowed to equilibrate for 2.5 hours. […] The amount of bound ^3 H-folic acid was measured by scintillation counting of the nitrocellulose membrane. […]

[6] = system: CCRF-CEM; assay: In vitro growth inhibition (MTT), CCRF-CEM; type: cell-based; conditions: Homo sapiens, title: continuous (72-hour) exposure, incubation 5 days, mean IC50, read-out: IC50 Cell Culture CCRF-CEM
Experimental: as §1
In vitro growth inhibition:
as §2, §3

[7] = target: T2, catalytic domain of the human GARFT (Homo sapiens, UniProt P22102); assay: GAR transformylase (GARFT) inhibition constant determination; type: biochemical; conditions: 20° C., pH 7.5, competitive with respect to FDDF
T2 construct: catalytic domain of the human GARFT
T2 sequence (P22102 810-1010 limits assumed): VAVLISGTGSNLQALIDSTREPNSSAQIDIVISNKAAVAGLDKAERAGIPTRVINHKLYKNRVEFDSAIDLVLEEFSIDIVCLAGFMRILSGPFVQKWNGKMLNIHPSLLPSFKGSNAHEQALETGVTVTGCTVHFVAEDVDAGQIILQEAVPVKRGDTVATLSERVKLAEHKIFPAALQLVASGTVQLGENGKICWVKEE

| Ki [7] [nM] | relative folate binding protein Kd, times less potent than 6R-DDATHF ([5]; relative to 6R-DDATHF) | Structure (SMILES) | transport into cells [1] | antitumor activity [2] | affinity for the mFBP [3] | IC50 [4] [nM] | Kd [5] [nM] | IC50 [6] [nM] |
| --- | --- | --- | --- | --- | --- | --- | --- | --- |
|  |  | CN(Cc1cnc2nc(N)nc(N)c2n1)c1ccc(C(=O)N[C@@H](CCC(=O)O)C(=O)O)cc1 [Methotrexate] | transported via the reduced folate transport system |  |  |  |  |  |
|  |  | Nc1nc2c(c(=O)[nH]1)CC(CCc1ccc(C(=O)N[C@@H](CCC(=O)O)C(=O)O)cc1)CN2 (stereo partly drawn) [DDATHF, 5,10-dideazatetrahydrofolic acid] | transported into cells via both the reduced folate transport system and the mFBP | reported to show antitumor activity | high affinity for the mFBP | 17.5 | 0.02 | 1.5 |
| 1.4 | about 1400 times | Cc1cc(C(=O)N[C@@H](CCC(=O)O)C(=O)O)sc1CCC1CNc2nc(N)[nH]c(=O)c2C1 (stereo partly drawn) [Compound 1, N-(5-[2-(2-amino-4(3H)-oxo-5,6,7,8-tetrahydropyrido[2,3-d]pyrimidin 6-yl)ethyl]-4-methylthieno-2-yl)-L-glutamic acid] |  |  |  | 13.5 | 28 | 6.1 |
